Data published in ChEMBL document CHEMBL1151359, “Effects of Tetracyclic and Pentacyclic Triterpenoids on Growth of Phytophthora cactorum” (1981).
Calls of active or inactive are those of the source. No cut-off for these calls is given here.

What was measured:
Phytophthora cactorum [1] = experiment: Antifungal activity against Phytophthora cactorum at 10 mg/L in liquid culture medium; type: functional, organism-based
Phytophthora cactorum [2] = experiment: Effect on Phytophthora cactorum growth assessed as colony diameter at 10 mg/L after 6 days in solid culture medium; type: functional
Phytophthora cactorum [3] = experiment: Growth promotion activity in Phytophthora cactorum at 10 mg/L in liquid culture medium; type: functional, organism-based
Phytophthora cactorum [4] = experiment: Growth promotion activity of Phytophthora cactorum assessed as mycelial dry weight at 10 mg/L after 18 days in liquid culture medium; type: functional
Phytophthora cactorum [5] = experiment: Growth promotion activity of Phytophthora cactorum assessed as mycelial dry weight at 10 mg/L after 12 days in liquid culture medium; type: functional

| SMILES | Activity (Phytophthora cactorum [1]) | Activity (Phytophthora cactorum [2]) | also measured |
| --- | --- | --- | --- |
| CC(=O)OC(C)(C)/C=C/C(=O)[C@](C)(O)[C@H]1[C@H](O)C[C@@]2(C)[C@@H]3CC=C4[C@@H](C=C(O)C(=O)C4(C)C)[C@]3(C)C(=O)C[C@]12C | Active |  |  |
| C=C(C)[C@H]1CC[C@]2(C)[C@H]3CC[C@@H]4[C@@]5(C)CCCC(C)(C)[C@@H]5CC[C@@]4(C)[C@]3(C)CC[C@@H]12 | Active | 30 mm |  |
| CC(=O)OC(C)(C)/C=C/C(=O)[C@](C)(O)[C@H]1[C@H](O)C[C@@]2(C)[C@@H]3CC=C4[C@H](C[C@H](O)C(=O)C4(C)C)[C@]3(C)C(=O)C[C@]12C | Active |  |  |
| CC(C)CCC[C@@H](C)[C@H]1CC[C@H]2[C@@H]3CC=C4C[C@@H](O)CC[C@]4(C)[C@H]3CC[C@]12C |  |  | Activity (Phytophthora cactorum [3]): Active |
| CC(C)(O)/C=C/C(=O)[C@](C)(O)[C@H]1[C@H](O)C[C@@]2(C)[C@@H]3CC=C4[C@@H](C[C@H](O)C(=O)C4(C)C)[C@]3(C)C(=O)C[C@]12C | Active |  |  |
| C[C@H]1C(=O)CC[C@@H]2[C@]1(C)CC[C@H]1[C@@]2(C)CC[C@@]2(C)[C@@H]3CC(C)(C)CC[C@]3(C)CC[C@]12C | Active |  |  |
| CC[C@H](CC[C@@H](C)[C@H]1CC[C@H]2[C@@H]3CC=C4C[C@@H](O)CC[C@]4(C)[C@H]3CC[C@]12C)C(C)C [BETA-SITOSTEROL] |  | 35 mm | Activity (Phytophthora cactorum [4]): 200 mg; Activity (Phytophthora cactorum [5]): 125 mg |
| CC1(C)CC[C@]2(C(=O)O)CC[C@]3(C)C(=CC[C@@H]4[C@@]5(C)CC[C@H](O)C(C)(C)[C@@H]5CC[C@]43C)[C@@H]2C1 [OLEANOLIC_ACID] |  | 29 mm |  |
| C=C(C)[C@@H]1CC[C@]2(CO)CC[C@]3(C)[C@H](CC[C@@H]4[C@@]5(C)CC[C@H](O)C(C)(C)[C@@H]5CC[C@]43C)[C@@H]12 [BETULIN] |  | 30.5 mm |  |
| CC(=O)OC(C)(C)/C=C/C(=O)[C@](C)(O)[C@H]1[C@H](O)C[C@@]2(C)[C@@H]3CC=C4[C@@H](CC[C@@H](O)C4(C)C)[C@]3(CO)C(=O)C[C@]12C [CUCURBITACIN C] | Active | 28 mm |  |
| CC(=O)OC(C)(C)/C=C/C(=O)[C@](C)(O)[C@H]1[C@H](O)C[C@@]2(C)[C@@H]3CC=C4[C@@H](C[C@H](O)C(=O)C4(C)C)[C@]3(CO)C(=O)C[C@]12C | Active |  |  |
| CC(C)[C@H](C)CC[C@@H](C)[C@H]1CC[C@H]2[C@@H]3CC=C4C[C@@H](O)CC[C@]4(C)[C@H]3CC[C@]12C [CAMPESTEROL] |  |  | Activity (Phytophthora cactorum [4]): 200 mg; Activity (Phytophthora cactorum [5]): 125 mg |
| C=C(C)[C@@H]1CC[C@]2(C)CC[C@]3(C)[C@H](CC[C@@H]4[C@@]5(C)CCC(=O)C(C)(C)[C@@H]5CC[C@]43C)[C@@H]12 | Active |  |  |
| C[C@H]1[C@H](C)CC[C@]2(C)CC[C@]3(C)C(=CC[C@@H]4[C@@]5(C)CC[C@H](O)C(C)(C)[C@@H]5CC[C@]43C)[C@H]12 |  |  | Activity (Phytophthora cactorum [3]): Active |
| CC(C)=CCC[C@@H](C)[C@H]1CC[C@@]2(C)[C@@H]3CC[C@H]4C(C)(C)[C@@H](O)CC[C@@]45C[C@@]35CC[C@]12C [CYCLOARTENOL] |  | 31 mm |  |
| CC1(C)CCC[C@]2(C)[C@H]3CC[C@@H]4[C@@]5(C)CC[C@H](O)C(C)(C)[C@@H]5CC[C@@]4(C)[C@]3(C)CC[C@@H]12 [TETRAHYMANOL] |  |  | Activity (Phytophthora cactorum [4]): 135 mg; Activity (Phytophthora cactorum [3]): Active |
| CC1(C)CC[C@]2(C)CC[C@]3(C)C(=CC[C@@H]4[C@@]5(C)CC[C@H](O)C(C)(C)[C@@H]5CC[C@]43C)[C@@H]2C1 [beta-AMYRIN] |  | 35 mm | Activity (Phytophthora cactorum [4]): 135 mg; Activity (Phytophthora cactorum [3]): Active |
| CC(C)=CCC[C@@H](C)[C@H]1CC[C@@]2(C)C3=C(CC[C@]12C)[C@@]1(C)CC[C@H](O)C(C)(C)[C@@H]1CC3 [LANOSTEROL] |  | 30.5 mm |  |
| C=C(C)[C@@H]1CC[C@]2(C)CC[C@]3(C)[C@H](CC[C@@H]4[C@@]5(C)CC[C@H](O)C(C)(C)[C@@H]5CC[C@]43C)[C@@H]12 [LUPEOL] |  | 29.5 mm |  |
